According to US20140205537A1, “LRRK2 INHIBITORS” (ZENOBIA THERAPEUTICS, INC., priority 2011, published 2014):

Legend:
ABL1 = ABL1 (Homo sapiens, UniProt P00519); assay: Kinase selectivity panel: ABL1; format: biochemical
PIM1 = PIM1 (Homo sapiens, UniProt P11309); assay: Kinase selectivity panel: PIM1; format: biochemical
EGFR = EGFR (Homo sapiens, UniProt P00533); assay: Kinase selectivity panel: EGFR; format: biochemical
ALK4 = ALK4 (Homo sapiens, UniProt P36896); assay: Kinase selectivity panel: ALK4; format: biochemical
Sequence of ALK4 (P36896 24-505, species assumed): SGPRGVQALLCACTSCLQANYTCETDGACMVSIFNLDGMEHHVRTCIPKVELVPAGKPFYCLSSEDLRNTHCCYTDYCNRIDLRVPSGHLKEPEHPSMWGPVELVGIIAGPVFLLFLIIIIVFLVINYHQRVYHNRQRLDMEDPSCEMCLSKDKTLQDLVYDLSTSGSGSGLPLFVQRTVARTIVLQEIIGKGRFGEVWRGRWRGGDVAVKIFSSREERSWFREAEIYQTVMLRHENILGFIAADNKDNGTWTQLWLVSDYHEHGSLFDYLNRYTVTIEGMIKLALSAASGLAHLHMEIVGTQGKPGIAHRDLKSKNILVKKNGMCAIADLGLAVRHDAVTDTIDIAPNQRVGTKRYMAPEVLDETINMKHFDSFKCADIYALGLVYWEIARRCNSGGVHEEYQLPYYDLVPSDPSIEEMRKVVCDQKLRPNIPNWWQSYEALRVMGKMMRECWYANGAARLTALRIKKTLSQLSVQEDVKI

TAK1-TAB1 = TAK1-TAB1 (Homo sapiens, UniProt O43318); assay: Kinase selectivity panel: TAK1-TAB1; format: biochemical
Sequence of TAK1-TAB1 (O43318 1-303 limits assumed): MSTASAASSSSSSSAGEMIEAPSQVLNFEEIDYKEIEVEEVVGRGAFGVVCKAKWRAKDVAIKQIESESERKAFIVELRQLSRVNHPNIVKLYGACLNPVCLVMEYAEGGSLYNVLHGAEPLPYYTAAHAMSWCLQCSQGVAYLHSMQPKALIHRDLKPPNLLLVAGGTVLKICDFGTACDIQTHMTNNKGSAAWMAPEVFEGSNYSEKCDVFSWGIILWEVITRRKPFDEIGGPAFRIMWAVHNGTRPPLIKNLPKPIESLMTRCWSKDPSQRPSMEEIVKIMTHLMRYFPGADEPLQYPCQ
Sequence of TAK1-TAB1 (Q15750 437-504 partner limits assumed): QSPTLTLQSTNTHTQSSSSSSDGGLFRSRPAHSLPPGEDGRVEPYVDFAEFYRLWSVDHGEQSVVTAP

LCK = LCK (Homo sapiens, UniProt P06239); assay: Kinase selectivity panel: LCK; format: biochemical
AMPK A1/B1/G1 = AMPK A1/B1/G1 (Homo sapiens, UniProt Q13131); assay: Kinase selectivity panel: AMPK A1/B1/G1; format: biochemical
ROCK1 = ROCK1 (Homo sapiens, UniProt Q13464); assay: Kinase selectivity panel: ROCK1; format: biochemical
Sequence of ROCK1 (Q13464 whole entry, species assumed): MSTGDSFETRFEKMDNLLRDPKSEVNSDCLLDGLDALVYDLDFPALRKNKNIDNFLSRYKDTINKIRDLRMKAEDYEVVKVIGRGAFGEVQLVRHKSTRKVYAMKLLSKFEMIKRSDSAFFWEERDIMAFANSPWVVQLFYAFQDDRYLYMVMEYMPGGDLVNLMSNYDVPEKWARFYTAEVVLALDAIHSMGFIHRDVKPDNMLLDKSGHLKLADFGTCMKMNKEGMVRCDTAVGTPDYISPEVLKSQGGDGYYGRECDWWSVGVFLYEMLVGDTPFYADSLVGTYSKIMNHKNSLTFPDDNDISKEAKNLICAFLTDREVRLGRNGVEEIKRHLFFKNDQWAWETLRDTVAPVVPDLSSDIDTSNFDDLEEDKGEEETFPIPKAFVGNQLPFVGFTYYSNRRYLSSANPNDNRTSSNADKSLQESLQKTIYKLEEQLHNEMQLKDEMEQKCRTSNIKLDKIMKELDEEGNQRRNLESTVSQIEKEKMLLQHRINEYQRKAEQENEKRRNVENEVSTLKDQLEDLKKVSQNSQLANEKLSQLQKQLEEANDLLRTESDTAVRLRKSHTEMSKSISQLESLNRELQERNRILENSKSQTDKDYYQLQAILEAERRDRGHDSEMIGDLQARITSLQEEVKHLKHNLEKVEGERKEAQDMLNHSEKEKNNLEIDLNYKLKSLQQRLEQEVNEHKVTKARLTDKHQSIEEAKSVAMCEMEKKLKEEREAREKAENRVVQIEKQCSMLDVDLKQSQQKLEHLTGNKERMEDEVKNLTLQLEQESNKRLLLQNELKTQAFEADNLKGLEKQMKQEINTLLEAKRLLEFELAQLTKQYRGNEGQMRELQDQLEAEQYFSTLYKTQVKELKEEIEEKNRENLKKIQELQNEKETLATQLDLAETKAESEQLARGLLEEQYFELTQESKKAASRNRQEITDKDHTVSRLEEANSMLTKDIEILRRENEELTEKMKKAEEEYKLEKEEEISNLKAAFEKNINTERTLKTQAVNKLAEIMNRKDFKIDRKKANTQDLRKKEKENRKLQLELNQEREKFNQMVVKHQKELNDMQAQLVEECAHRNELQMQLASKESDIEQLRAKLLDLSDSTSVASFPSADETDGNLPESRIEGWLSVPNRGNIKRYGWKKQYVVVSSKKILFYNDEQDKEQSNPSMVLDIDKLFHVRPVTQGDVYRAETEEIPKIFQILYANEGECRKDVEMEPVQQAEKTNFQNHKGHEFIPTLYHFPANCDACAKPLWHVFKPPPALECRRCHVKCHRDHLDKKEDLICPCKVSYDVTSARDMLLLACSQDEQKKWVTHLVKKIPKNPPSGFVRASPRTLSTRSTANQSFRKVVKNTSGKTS

KIT = KIT (Homo sapiens, UniProt P10721); assay: Kinase selectivity panel: KIT; format: biochemical
Sequence of KIT (P10721 26-976, species assumed): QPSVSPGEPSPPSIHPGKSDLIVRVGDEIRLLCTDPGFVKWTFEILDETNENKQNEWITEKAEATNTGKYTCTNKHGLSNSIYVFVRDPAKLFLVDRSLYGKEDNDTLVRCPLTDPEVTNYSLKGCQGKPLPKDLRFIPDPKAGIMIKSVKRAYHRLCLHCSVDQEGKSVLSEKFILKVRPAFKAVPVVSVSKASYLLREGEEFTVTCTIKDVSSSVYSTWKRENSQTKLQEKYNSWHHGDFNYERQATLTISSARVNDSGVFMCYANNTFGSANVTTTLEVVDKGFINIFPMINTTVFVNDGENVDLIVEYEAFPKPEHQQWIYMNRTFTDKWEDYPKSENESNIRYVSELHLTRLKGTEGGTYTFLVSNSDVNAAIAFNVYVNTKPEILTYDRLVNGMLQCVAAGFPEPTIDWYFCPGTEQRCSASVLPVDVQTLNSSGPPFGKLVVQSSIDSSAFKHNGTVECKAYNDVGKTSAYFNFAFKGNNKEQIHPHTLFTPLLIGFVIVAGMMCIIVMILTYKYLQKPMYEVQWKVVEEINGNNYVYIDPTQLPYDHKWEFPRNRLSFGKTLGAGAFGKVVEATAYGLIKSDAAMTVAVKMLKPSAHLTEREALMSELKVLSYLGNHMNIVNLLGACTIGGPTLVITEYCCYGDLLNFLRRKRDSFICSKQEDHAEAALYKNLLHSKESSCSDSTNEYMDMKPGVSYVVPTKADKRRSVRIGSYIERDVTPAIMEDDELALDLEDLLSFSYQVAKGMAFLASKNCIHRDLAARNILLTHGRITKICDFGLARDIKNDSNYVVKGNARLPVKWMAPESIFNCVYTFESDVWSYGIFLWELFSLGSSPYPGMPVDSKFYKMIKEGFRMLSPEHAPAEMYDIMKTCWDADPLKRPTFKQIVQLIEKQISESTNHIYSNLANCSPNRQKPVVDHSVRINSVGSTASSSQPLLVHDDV

G2019S LRRK2 = G2019S LRRK2 (Homo sapiens, UniProt Q5S007, G2019S); assay: G2019S LRRK2 inhibition (Invitrogen SelectScreen / TR-FRET biochemical assay); design: The protein construct used in the assay is GST tagged 969-2527; GST; purchased Invitrogen; settings: numeric value
Experimental: IC50s were determined using Invitrogen's SelectScreen® Profiling Service for wild type and LRRK2 G2019S. The test compounds were screened in 1% DMSO (final) in the well.
a) % inhibition is measured at one concentration
b) a 10-point titration is run to ensure the kinase is inhibited within an expected IC50 range
Biochemical Assay Protocol:
Compound potency against wild-type and G2019S LRRK2 is measured via TR-FRET. The IC50, the amount of inhibitor required to inhibitor 50% of the protein under the given assay conditions, is determined by varying the amount of compound (500-0.001 uM) by serial dilution with 12-data points per compound, in duplicate. The substrate (Fluorescein-GAGRLGRDKYKTLRQIRQ) and ATP is fixed at 0.8 uM and 57 uM (KmATP), respectively. All assays are run in Corning low volume […] round bottomed plates. The assay is run in 50 mM Tris-HCl pH8.5, 10 mM MgCl2, 0.01% Brij-35, 1 mM EGTA, 2 mMDTT. The TR-FRET assay is an end-point assay where the reaction with protein, substrate, inhibitor and ATP is incubated for 1 hour at room temperature. The compound is pre-incubated with the protein and substrate prior to initiating the reaction with ATP. Phospho-transfer is detected using a Terbium labeled anti-pLRRKtide that binds to phosphorylated substrate creating FRET transfer when excited at 340 nm. Emissions signals are taken for terbium and FRET induced fluorescein at 495 nm and 520 nm, respectively, using a Biotek Synergy 2 spectrophotometer. The dose response is determined by plotting the emission ratio of 520/495 against the log of the inhibitor concentration. The maximum inhibition and non-inhibition controls is run on all plates. Staurosporine is used as the positive inhibition control and DMSO is used as the negative point control. A 12-point dose curve of Staurosporine is run as a dosing control. The IC50 is determined to be the inhibitor concentration at which 50% inhibition is achieved. The protein construct used in the assay is GST tagged 969-2527. The protein is commercially available from Invitrogen.
Alternatively, compounds of formulas (II), (I), (I-A), (I-B), (I-C), (I-D), (I-D-1), (I-D-2), (I-E), (I-F), (I-G), (I-H), (I-I), (I-I-1), (I-I-2), (I-J), (I-K), (I-L), (I-M), (I-N), (I-Z-1), (I-Z-2), (I-Z-2-a), (I-Z-2-b), (I-Z-2-c), (I-Z-2-d), (I-Z-3-a), (I-Z-3-b), (I-Z-3-c), or (I-Z-3-d) were tested using Invitrogen's SelectScreen® Profiling Service for LRRK2 G2019S.

P38 alpha = P38 alpha (Homo sapiens, UniProt Q16539); assay: Kinase selectivity panel: P38 alpha; format: biochemical
Sequence of P38 alpha (Q16539 whole entry): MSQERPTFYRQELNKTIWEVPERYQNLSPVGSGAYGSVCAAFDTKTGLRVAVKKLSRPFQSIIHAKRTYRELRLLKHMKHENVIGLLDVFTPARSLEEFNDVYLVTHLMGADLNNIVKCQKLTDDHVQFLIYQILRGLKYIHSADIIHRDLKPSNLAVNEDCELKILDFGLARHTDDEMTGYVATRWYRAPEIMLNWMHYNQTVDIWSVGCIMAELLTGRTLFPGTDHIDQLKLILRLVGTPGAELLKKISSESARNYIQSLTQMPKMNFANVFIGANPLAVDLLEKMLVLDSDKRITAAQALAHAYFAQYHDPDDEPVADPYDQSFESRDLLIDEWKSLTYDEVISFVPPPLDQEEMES

Sequence of ABL1 (P00519 whole entry, species assumed): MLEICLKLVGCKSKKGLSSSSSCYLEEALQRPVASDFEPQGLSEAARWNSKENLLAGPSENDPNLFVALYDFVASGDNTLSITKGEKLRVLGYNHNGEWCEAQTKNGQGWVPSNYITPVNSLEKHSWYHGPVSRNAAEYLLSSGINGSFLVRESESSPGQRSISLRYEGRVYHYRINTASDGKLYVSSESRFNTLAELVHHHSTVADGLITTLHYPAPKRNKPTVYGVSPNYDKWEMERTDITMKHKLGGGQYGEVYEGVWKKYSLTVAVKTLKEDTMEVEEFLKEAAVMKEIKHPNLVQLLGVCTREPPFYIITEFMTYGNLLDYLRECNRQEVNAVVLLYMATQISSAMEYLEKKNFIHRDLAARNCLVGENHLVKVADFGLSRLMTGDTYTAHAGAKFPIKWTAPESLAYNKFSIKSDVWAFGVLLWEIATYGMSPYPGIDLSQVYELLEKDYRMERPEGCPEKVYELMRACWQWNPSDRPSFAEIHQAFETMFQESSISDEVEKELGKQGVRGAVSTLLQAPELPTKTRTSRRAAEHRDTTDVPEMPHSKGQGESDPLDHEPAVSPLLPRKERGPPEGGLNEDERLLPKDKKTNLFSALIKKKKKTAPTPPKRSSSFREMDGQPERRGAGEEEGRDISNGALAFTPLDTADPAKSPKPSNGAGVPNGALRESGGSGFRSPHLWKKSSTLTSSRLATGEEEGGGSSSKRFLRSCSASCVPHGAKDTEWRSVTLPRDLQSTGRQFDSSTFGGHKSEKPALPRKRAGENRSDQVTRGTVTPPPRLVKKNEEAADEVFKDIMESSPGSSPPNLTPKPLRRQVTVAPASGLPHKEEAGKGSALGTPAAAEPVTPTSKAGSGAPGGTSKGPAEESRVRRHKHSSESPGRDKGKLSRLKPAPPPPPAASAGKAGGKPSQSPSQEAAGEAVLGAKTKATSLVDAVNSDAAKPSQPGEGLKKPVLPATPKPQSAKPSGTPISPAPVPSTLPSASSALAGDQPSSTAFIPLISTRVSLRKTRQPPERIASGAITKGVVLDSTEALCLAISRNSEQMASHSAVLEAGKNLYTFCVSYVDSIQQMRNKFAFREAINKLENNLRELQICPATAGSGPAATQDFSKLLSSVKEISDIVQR
Sequence of PIM1 (P11309 whole entry, species assumed): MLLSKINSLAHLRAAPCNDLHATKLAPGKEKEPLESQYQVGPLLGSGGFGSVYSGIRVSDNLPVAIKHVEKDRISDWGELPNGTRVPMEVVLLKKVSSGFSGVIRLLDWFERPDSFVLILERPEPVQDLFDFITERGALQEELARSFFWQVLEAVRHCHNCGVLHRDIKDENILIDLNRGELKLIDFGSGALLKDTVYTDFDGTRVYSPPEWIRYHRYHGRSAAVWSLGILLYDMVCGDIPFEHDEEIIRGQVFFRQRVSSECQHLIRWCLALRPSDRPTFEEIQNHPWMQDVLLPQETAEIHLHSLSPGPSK

IC50 (ABL1): > 10000 nM | inhibition at 0.1 µM (ABL1; @0.1 uM): 5% | inhibition at 0.1 µM (PIM1): -2% | inhibition at 0.1 µM (EGFR): -3% | inhibition at 0.1 µM (ALK4): -3% | inhibition at 0.1 µM (TAK1-TAB1): -3% | inhibition at 0.1 µM (LCK): 3% | inhibition at 0.1 µM (AMPK A1/B1/G1): -1% | inhibition at 0.1 µM (ROCK1): 1% | inhibition at 0.1 µM (KIT): 4% | IC50 (G2019S LRRK2): 5.5 nM | inhibition at 0.1 µM (P38 alpha): 12%
Compound: COc1ccc2c(c1)/C(=C/c1cnc(C3CCOCC3)[nH]1)C(=O)N2 [Compound 18, (3Z)-5-methoxy-3-[(2-tetrahydropyran-4-yl-1H-imidazol-5-yl)methylene]indolin-2-one]
